Measurements from US9676777B2, “Compounds useful for producing an optically active diazabicyclooctane compound” (Meiji Seika Pharma Co., Ltd., priority 2010, dated 2017).

How the values were obtained:
[1] = target: AmpC (Pseudomonas aeruginosa (strain ATCC 15692 / DSM 22644 / CIP 104116 / JCM 14847 / LMG 12228 / 1C / PRS 101 / PAO1), UniProt P24735); format: biochemical; details: result in words
Procedure: The biological activity of the above-mentioned compounds represented by formulae (H) and (s) can be measured as follows. […] Further, using constitutive AmpC producing Pseudomonas aeruginosa, a combined antimicrobial activity (MIC) was measured when using Piperacillin (PIPC) as an antibiotic and the compound of formula (H) or (s) in combination to check whether or not the antimicrobial activity of PIPC could be restored.
Using P. aeruginosa PAO1 genome as a template, a DNA for encoding an AmpC β-lactamase domain excluding a signal peptide was amplified with PCR. This PCR product was incorporated into pET-28b(+)vector (Merck), introduced into E. coli BL21 (Merck), and, under induction of 1 mM isopropyl-β-D-(−)-thiogalactopyranoside (Nacalai Tesque), cultured overnight at 20° C. to express AmpC. After the bacterial cell was collected, AmpC was purified from the cell extract obtained by ultrasonic treatment, using CM Sepharose Fast Flow (GE Healthcare) and HiTrap Heparin HP (GE Healthcare) at 4° C.

[2] = system: P. aeruginosa PAO1 variant, which constitutively expresses AmpC; experiment: Combinatorial antibacterial activity (MIC of PIPC) in combination with test compound, agar plate dilution; format: cell-based, Pseudomonas aeruginosa; details: for MIC: Pseudomonas aeruginosa, PAO1; for effect of the compound in combination with an antibiotic: result in words
Procedure: The biological activity of the above-mentioned compounds represented by formulae (H) and (s) can be measured as follows. Specifically, an enzyme inhibitory activity (IC50 value) against AmpC enzyme which is a class C β-lactamase was determined using nitrocephin as a substrate to check whether or not the compounds had the inhibitory activity and compare the activities of them. Further, using constitutive AmpC producing Pseudomonas aeruginosa, a combined antimicrobial activity (MIC) was measured when using Piperacillin (PIPC) as an antibiotic and the compound of formula (H) or (s) in combination to check whether or not the antimicrobial activity of PIPC could be restored.
The combinatorial effect of the test compound with a β-lactam agent against bacteria was evaluated using AmpC constitutive expression strain selected from P. aeruginosa PAO1 through agent exposure. Using piperacillin (PIPC, Sigma-Aldrich) as a β-lactam agent, measurement was conducted by agar plate dilution process in which minimal inhibitory concentration (MIC) of PIPC is based on Clinical and Laboratory Standards Institute (CLSI process). That is, an agara plate containing 4 μg/mL (final concentration) of test compound and PIPC at each concentration in Mueller-Hinton agar (Becton, Dickinson and Company) was made, and bacteria cultured overnight in cation-adjusted Muller-Hinton broth (Becton, Dickinson and Company) were adjusted in the same medium so as to have 10^4 CFU/spot and inoculated on a plate containing an agent. This plate containing an agent was cultured overnight at 35° C., and the minimum agent concentration in which no growth of bacteria is observed was determined to be MIC.

Sequence of AmpC (P24735 27-397): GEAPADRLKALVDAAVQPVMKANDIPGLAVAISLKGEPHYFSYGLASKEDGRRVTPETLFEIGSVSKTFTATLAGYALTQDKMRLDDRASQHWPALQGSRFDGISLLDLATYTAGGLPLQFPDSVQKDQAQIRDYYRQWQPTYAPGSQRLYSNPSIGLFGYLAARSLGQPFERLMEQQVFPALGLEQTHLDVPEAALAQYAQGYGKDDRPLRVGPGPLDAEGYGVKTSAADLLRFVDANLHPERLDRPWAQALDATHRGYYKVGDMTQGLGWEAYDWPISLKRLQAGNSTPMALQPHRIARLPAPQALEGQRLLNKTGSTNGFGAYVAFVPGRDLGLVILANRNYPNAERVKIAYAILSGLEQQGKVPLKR

## NC(=O)[C@@H]1CC[C@@H]2CN1C(=O)N2OS(=O)(=O)[O-].[Na+] [Example 23, (2S,5R)-1,6-Diazabicyclo[3.2.1]octane-2-carboxamide, 7-oxo-6-(sulfoxy)-monosodium salt]
[1]
  β-lactamase enzyme inhibitory activity: exhibited the activities
[2]
  MIC: 4 µg/mL
  effect of the compound in combination with an antibiotic: exhibited the activities

## C[C@]1(Cn2ccnn2)[C@H](C(=O)[O-])N2C(=O)C[C@H]2S1(=O)=O.[Na+] [TAZ, Tazobactam, reference compound]
[2]
  MIC: 64 µg/mL

## NC(=O)[C@H]1CC[C@H]2CN1C(=O)N2OS(=O)(=O)[O-].[Na+] [Example 24, (2R,5S)-1,6-Diazabicyclo[3.2.1]octane-2-carboxamide, 7-oxo-6-(sulfoxy)-monosodium salt]
[1]
  β-lactamase enzyme inhibitory activity: exhibited no activity
[2]
  MIC: 64 µg/mL
  effect of the compound in combination with an antibiotic: exhibited no activity
